The experiment has as its target T1, α-amylase (Sus scrofa, UniProt P00690).
T1 construct: gene AMY2
T1 sequence (P00690 16-511): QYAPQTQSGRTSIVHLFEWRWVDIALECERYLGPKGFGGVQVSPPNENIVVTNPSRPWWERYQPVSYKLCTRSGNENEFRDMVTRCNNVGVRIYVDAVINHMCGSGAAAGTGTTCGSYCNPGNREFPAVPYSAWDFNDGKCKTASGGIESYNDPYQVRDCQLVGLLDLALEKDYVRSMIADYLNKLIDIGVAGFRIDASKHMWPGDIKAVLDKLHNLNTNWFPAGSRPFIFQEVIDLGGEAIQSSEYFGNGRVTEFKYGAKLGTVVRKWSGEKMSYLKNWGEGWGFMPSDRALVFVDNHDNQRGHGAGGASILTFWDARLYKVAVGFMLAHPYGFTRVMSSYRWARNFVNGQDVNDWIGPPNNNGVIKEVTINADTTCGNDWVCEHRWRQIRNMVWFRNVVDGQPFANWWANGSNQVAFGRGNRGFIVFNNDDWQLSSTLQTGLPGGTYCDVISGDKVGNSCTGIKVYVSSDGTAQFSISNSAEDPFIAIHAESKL
Kind of experiment: colorimetric DNS starch hydrolysis assay; Lineweaver-Burk kinetics; intrinsic fluorescence quenching. Type of experiment: biochemical.

As a reminder, the IC50 is the point on the concentration scale where inhibition reaches its midpoint. The low end stands for greater potency in that assay, the high end for weaker potency in that assay. `Oc1cc(O)c2c(c1)O[C@H](c1cc(O)c(O)c(O)c1)[C@H](O)C2` [EGC, epigallocatechin] showed an IC50 of 4.44 mM.

Source of the values: PMC9682078, “Structural changes and molecular mechanism study on the inhibitory activity of epigallocatechin against α-glucosidase and α-amylase” (Frontiers in Nutrition, 2022).
